Experiments:
[1] = target: T1, AXL (Homo sapiens, UniProt P30530); assay: AXL autophosphorylation ELISA in A-172 cells; assay type: cell-based; conditions: Table 3 Cellular Activities, Gas6-stimulated, phospho-AXL ELISA
T1 construct: endogenous in cells; host or cells: A-172 glioblastoma cells (ATCC #CRL-1620)
T1 sequence (P30530 26-894): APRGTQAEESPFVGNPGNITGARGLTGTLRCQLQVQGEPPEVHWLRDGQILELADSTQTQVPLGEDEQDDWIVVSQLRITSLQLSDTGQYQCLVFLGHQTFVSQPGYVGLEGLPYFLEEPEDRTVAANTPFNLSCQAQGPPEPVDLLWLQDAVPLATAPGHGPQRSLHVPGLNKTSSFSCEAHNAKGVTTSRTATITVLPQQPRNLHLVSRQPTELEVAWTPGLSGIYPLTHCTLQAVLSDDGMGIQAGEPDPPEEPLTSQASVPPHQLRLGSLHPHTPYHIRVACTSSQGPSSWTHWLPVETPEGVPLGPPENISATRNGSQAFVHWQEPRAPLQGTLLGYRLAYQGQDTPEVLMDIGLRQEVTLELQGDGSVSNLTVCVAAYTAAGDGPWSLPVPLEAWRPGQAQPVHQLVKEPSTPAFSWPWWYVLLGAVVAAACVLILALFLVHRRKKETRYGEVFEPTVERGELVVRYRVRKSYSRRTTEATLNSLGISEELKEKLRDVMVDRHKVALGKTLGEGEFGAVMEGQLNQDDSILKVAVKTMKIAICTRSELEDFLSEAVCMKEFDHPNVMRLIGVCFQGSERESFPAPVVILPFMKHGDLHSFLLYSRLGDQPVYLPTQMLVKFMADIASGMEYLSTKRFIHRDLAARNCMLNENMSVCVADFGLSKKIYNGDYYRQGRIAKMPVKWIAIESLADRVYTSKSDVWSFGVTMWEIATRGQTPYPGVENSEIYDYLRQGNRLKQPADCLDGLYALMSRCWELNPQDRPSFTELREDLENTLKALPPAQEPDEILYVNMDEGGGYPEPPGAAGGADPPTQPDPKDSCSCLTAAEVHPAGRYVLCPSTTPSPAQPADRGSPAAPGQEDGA
Outline: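 Phospho-AXL in lysates measured by ELISA after Gas6 stimulation (1 μg/mL, 15 min) of A-172 cells pre-incubated 1 h with an 8-point compound dilution series in 0.3% DMSO after 24 h serum starvation. IC50 by 4-parameter logistic fit, with DMSO-treated and reference-inhibitor wells as 100% and 0% activity.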

[2] = target: KDR (Homo sapiens, UniProt P35968); assay: KDR autophosphorylation ELISA in HUVEC cells; assay type: cell-based; parameters: endogenous in cells; host or cells: HUVEC (Lonza #C2519A); conditions: Table 3 Cellular Activities, VEGF165-stimulated, phospho-KDR ELISA
Outline: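 Read-out: phospho-KDR ELISA on cell lysates, quantified against a phospho-KDR standard, normalised to VEGF-stimulated DMSO (100%) and unstimulated (0%) wells, IC50 by 4-parameter fit. Cells were 24 h serum-starved HUVEC given compound for 1 h, then 100 ng/mL VEGF165 for 5 min.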

KDR, sequence (P35968 20-1356): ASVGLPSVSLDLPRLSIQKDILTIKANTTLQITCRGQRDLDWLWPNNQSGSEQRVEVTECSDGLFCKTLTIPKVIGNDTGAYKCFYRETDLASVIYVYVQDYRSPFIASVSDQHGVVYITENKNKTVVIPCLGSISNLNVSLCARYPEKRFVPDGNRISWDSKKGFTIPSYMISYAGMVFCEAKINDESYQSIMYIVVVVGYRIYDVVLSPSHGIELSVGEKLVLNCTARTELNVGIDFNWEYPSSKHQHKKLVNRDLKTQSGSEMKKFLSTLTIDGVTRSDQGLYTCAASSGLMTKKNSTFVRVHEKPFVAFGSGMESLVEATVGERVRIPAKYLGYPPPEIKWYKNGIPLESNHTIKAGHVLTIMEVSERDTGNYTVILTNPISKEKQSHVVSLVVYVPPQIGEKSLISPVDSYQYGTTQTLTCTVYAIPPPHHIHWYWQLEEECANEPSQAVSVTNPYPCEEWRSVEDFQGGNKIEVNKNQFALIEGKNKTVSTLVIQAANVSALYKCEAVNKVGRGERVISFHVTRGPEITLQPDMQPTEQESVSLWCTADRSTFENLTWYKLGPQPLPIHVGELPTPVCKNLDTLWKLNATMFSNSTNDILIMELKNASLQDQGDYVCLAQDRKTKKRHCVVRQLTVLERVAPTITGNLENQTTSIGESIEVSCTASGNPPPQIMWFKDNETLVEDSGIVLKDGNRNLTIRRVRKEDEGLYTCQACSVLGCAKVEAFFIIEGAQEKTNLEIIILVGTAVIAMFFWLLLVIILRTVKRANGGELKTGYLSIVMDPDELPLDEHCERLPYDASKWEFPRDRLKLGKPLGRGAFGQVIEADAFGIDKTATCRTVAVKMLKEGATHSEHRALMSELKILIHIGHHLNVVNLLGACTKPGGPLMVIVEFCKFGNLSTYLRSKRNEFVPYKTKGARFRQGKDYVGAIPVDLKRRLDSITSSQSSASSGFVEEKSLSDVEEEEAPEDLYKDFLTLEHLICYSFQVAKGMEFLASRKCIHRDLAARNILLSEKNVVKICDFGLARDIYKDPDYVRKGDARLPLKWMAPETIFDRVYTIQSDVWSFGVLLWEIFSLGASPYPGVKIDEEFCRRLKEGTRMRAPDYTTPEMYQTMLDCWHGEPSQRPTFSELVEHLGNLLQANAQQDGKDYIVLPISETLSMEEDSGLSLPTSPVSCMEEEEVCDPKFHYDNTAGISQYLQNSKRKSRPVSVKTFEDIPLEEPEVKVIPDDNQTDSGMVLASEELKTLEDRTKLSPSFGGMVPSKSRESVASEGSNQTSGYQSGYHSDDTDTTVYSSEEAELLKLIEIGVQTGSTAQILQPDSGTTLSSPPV

- IC50 [1]: ≤ 100 nM
- IC50 [2]: 300 to 1000 nM
SMILES: COc1cc2nccc(Oc3ccc(NC(=O)c4cc(C(C)=O)c(C)n(-c5ccoc5)c4=O)cc3F)c2nc1OC [Compound 235, 5-Acetyl-N-[4-[(6,7-dimethoxy-1,5-naphthyridin-4-yl)oxy]-3-fluorophenyl]-1-(furan-3-yl)-6-methyl-2-oxopyridine-3-carboxamide]

Source: patent US20230151003A1, “COMPOUNDS AND METHODS OF USE” (Exelixis, Inc., priority 2020, published 2023)
